Results on two compounds are retold here after ChEMBL document CHEMBL5370693, “Kinases Controlling Stability of the Oncogenic MYCN Protein” (ACS Med Chem Lett, 2023).

Experiment [1] concerns Phosphatidylinositol 4,5-bisphosphate 3-kinase catalytic subunit alpha isoform (Homo sapiens), P42336 [E545A]. Description: Inhibition of PIK3CA E545A mutant (unknown origin) assessed as remaining activity at 15 uM incubated for 1 hr by KINOMEscan competitive binding assay relative to control.
For experiment [2], the target named is T1, Phosphatidylinositol 4,5-bisphosphate 3-kinase catalytic subunit delta isoform (Homo sapiens) (UniProt O00329).
T1 sequence (whole entry): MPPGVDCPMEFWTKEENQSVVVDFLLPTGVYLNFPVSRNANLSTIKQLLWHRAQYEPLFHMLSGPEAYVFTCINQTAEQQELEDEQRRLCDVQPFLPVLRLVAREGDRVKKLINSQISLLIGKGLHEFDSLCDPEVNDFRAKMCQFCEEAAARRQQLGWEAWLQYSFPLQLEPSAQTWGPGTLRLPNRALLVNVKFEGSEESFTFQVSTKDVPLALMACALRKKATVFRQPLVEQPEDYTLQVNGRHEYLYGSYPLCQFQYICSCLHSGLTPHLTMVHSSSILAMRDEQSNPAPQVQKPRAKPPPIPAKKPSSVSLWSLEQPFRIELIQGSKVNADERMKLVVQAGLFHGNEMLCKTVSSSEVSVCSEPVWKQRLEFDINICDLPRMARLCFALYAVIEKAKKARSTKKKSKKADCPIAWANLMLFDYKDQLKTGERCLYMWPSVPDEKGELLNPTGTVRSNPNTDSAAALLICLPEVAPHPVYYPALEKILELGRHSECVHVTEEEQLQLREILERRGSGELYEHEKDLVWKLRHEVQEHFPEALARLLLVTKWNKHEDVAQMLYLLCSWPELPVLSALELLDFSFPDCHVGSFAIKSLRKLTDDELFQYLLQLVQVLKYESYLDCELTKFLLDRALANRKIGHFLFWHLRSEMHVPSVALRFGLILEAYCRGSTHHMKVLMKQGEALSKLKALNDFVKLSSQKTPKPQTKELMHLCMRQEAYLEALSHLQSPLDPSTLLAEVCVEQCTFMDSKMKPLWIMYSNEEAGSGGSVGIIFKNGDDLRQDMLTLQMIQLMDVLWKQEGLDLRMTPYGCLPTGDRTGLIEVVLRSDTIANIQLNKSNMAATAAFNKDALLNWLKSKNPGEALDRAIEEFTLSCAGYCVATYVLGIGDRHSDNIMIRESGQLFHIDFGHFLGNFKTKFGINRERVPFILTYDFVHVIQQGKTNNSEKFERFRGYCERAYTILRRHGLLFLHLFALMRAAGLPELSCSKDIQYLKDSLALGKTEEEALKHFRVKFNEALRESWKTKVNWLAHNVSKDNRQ
Briefly: Inhibition of PIK3CD (unknown origin) assessed as remaining activity at 15 uM incubated for 1 hr by KINOMEscan competitive binding assay relative to control.

Experiment [3] concerns the target Serine/threonine-protein kinase 38-like (Homo sapiens) (UniProt Q9Y2H1). Briefly: Inhibition of NDR2 (unknown origin) assessed as remaining activity at 15 uM incubated for 1 hr by KINOMEscan competitive binding assay relative to control.
Experiment [4] has as its target Phosphatidylinositol 4,5-bisphosphate 3-kinase catalytic subunit gamma isoform (Homo sapiens) (UniProt P48736). Briefly: Inhibition of PIK3CG (unknown origin) assessed as remaining activity at 15 uM incubated for 1 hr by KINOMEscan competitive binding assay relative to control.
For experiment [5], the target named is Phosphatidylinositol 4,5-bisphosphate 3-kinase catalytic subunit beta isoform (Homo sapiens) (UniProt P42338). Briefly: Inhibition of PIK3CB (unknown origin) assessed as remaining activity at 15 uM incubated for 1 hr by KINOMEscan competitive binding assay relative to control.
Phosphatidylinositol 4,5-bisphosphate 3-kinase catalytic subunit beta isoform (Homo sapiens), sequence (P42338 whole entry, looked up, canonical isoform): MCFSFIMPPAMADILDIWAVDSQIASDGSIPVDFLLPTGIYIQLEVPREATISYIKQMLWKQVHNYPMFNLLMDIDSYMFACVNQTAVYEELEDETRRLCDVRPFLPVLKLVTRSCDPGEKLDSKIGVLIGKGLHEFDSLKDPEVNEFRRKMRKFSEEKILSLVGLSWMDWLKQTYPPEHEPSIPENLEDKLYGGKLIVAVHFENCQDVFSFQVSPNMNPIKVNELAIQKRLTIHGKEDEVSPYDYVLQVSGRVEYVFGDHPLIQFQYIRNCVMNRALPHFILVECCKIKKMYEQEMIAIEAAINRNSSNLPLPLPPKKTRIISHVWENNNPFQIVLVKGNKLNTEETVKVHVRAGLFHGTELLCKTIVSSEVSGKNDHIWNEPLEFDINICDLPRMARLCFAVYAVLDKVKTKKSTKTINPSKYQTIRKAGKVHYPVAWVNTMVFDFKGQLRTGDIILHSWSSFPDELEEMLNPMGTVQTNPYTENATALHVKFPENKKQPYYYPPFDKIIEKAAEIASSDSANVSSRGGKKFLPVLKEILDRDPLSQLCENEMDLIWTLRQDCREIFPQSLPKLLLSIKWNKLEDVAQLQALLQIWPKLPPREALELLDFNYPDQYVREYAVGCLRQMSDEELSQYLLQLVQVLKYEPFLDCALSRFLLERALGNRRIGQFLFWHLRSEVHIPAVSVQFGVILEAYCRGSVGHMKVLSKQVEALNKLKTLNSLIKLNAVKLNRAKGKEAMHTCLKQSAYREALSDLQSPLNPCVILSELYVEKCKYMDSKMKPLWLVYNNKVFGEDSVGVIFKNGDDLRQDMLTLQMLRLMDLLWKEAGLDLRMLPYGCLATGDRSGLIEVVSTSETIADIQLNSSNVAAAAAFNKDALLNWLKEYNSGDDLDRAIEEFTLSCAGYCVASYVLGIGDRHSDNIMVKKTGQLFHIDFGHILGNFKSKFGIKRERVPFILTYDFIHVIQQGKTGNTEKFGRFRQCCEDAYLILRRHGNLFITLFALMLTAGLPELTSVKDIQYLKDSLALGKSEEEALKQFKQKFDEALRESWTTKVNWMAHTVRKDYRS
Experiment [6] addresses Casein kinase II subunit alpha (Homo sapiens) (UniProt P68400). Description: Inhibition of CSNK2A1 (unknown origin) assessed as remaining activity at 15 uM incubated for 1 hr by KINOMEscan competitive binding assay relative to control.
The target of experiment [7] is Phosphatidylinositol 4-phosphate 3-kinase C2 domain-containing subunit beta (Homo sapiens) (UniProt O00750). Description: Inhibition of PIK3C2B (unknown origin) assessed as remaining activity at 15 uM incubated for 1 hr by KINOMEscan competitive binding assay relative to control.
For experiment [8], the system named is Phosphatidylinositol 4,5-bisphosphate 3-kinase catalytic subunit alpha isoform (Homo sapiens), P42336 [H1047Y]. Description: Inhibition of PIK3CA H1047Y mutant (unknown origin) assessed as remaining activity at 15 uM incubated for 1 hr by KINOMEscan competitive binding assay relative to control.
The test system of experiment [9] is Phosphatidylinositol 4,5-bisphosphate 3-kinase catalytic subunit alpha isoform (Homo sapiens), P42336 [Q546K]. Briefly: Inhibition of PIK3CA Q546K mutant (unknown origin) assessed as remaining activity at 15 uM incubated for 1 hr by KINOMEscan competitive binding assay relative to control.
Phosphatidylinositol 4,5-bisphosphate 3-kinase catalytic subunit alpha isoform (Homo sapiens), P42336 [Q546K], sequence (P42336 whole entry Q546K, canonical isoform): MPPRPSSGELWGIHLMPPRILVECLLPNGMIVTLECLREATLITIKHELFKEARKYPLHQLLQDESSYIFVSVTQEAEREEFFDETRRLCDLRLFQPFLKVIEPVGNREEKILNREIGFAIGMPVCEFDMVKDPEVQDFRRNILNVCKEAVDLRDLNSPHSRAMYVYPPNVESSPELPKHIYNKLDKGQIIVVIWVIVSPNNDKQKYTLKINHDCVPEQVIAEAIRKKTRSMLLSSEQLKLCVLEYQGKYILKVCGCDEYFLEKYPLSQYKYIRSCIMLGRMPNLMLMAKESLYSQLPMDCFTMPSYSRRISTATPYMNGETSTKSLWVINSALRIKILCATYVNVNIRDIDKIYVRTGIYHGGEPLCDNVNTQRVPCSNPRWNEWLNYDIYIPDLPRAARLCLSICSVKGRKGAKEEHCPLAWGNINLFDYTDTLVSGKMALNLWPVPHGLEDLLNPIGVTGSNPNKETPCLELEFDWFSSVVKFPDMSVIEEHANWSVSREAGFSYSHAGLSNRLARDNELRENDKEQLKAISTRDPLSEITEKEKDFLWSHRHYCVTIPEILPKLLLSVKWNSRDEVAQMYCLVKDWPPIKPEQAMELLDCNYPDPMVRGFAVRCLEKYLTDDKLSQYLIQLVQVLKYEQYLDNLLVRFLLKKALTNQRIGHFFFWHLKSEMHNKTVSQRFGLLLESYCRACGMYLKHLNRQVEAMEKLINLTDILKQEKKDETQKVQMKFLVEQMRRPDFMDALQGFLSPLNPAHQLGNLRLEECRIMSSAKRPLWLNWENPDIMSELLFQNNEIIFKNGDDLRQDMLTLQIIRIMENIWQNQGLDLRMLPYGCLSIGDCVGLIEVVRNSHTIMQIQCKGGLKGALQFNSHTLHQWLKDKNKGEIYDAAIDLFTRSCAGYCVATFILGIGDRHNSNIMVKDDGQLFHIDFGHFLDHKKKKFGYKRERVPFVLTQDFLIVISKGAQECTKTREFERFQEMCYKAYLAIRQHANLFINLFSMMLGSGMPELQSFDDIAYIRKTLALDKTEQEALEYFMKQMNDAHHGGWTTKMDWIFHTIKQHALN
The test system of experiment [10] is Phosphatidylinositol 4,5-bisphosphate 3-kinase catalytic subunit alpha isoform (Homo sapiens), P42336 [H1047L]. Description: Inhibition of PIK3CA H1047L mutant (unknown origin) assessed as remaining activity at 15 uM incubated for 1 hr by KINOMEscan competitive binding assay relative to control.
Experiment [11] deals with Phosphatidylinositol 4,5-bisphosphate 3-kinase catalytic subunit alpha isoform (Homo sapiens), P42336 [C420R]. Description: Inhibition of PIK3CA C420R mutant (unknown origin) assessed as remaining activity at 15 uM incubated for 1 hr by KINOMEscan competitive binding assay relative to control.
Phosphatidylinositol 4,5-bisphosphate 3-kinase catalytic subunit alpha isoform (Homo sapiens), P42336 [C420R], sequence (P42336 whole entry C420R, canonical isoform): as the sequence (P42336 whole entry Q546K, canonical isoform) above, with C420R, K546Q counted along it
Experiment [12] concerns the target T2, Serine/threonine-protein kinase Chk1 (Homo sapiens) (UniProt O14757).
T2 sequence (whole entry): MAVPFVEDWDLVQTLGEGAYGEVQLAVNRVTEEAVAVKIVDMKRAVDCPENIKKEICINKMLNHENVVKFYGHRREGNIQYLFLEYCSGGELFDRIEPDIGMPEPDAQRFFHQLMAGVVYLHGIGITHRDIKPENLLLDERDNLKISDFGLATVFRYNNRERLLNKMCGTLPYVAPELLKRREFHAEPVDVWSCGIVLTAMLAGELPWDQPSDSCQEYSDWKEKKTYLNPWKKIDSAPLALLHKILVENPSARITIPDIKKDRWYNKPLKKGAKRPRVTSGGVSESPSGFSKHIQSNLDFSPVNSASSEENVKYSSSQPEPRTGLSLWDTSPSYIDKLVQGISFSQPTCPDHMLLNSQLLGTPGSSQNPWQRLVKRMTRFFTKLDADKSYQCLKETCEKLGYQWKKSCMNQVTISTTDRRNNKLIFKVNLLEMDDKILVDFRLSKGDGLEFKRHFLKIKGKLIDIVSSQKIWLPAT
Description: Inhibition of CHEK1 (unknown origin) assessed as remaining activity at 15 uM incubated for 1 hr by KINOMEscan competitive binding assay relative to control.

For experiment [13], the target named is Serine/threonine-protein kinase Chk2 (Homo sapiens) (UniProt O96017). Description: Inhibition of CHEK2 (unknown origin) assessed as remaining activity at 15 uM incubated for 1 hr by KINOMEscan competitive binding assay relative to control.
Serine/threonine-protein kinase Chk2 (Homo sapiens), sequence (O96017 whole entry, canonical isoform): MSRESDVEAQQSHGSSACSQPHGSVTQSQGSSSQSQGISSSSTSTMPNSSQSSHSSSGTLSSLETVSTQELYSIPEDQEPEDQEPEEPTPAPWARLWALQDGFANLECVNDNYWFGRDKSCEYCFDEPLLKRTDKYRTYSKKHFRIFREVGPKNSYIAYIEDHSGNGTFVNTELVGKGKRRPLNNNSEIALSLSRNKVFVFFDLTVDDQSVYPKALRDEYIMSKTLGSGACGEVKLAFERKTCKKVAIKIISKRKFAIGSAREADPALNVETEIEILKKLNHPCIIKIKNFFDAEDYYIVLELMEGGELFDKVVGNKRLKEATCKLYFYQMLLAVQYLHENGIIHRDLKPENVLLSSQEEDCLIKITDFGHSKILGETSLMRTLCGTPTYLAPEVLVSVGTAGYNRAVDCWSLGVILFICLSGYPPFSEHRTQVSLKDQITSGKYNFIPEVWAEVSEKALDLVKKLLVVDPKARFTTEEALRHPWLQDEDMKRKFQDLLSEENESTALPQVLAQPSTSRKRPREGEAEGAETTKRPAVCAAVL
For experiment [14], the target named is Phosphatidylinositol 4,5-bisphosphate 3-kinase catalytic subunit alpha isoform (Homo sapiens) (UniProt P42336). Briefly: Inhibition of PIK3CA (unknown origin) assessed as remaining activity at 15 uM incubated for 1 hr by KINOMEscan competitive binding assay relative to control.

The structures appear in SMILES notation.

Phosphatidylinositol 4,5-bisphosphate 3-kinase catalytic subunit alpha isoform (Homo sapiens), P42336 [E545A], sequence (P42336 whole entry E545A, canonical isoform): as the sequence (P42336 whole entry Q546K, canonical isoform) above, with E545A, K546Q counted along it

Turning to `CC(C)CC(=O)Oc1ccc2occ(-c3ccc(O)c(O)c3)c(=O)c2c1`, the Activity in experiment [1] is 100%; in [2], 93%; in [3], 48%; in [4] it was 86%; in experiment [5], 92%; in [6], 14%. Also, the Activity came to 91% in [7]; 98% in experiment [8]; 84% in experiment [9]; 69% in experiment [10]; 87% in experiment [11]; 88% in experiment [12]. Further, the Activity in experiment [13] amounted to 76%; in experiment [14], 91%.

On to `CC(C)CCOc1ccc2c(=O)c(-c3ccc(O)c(O)c3)coc2c1`, for which the Activity in [1] was 100%; in experiment [2], 97%; in [3], 17%; in experiment [4], 95%; in [5] it was 100%; in experiment [6], 44%. Besides, the Activity stood at 100% in experiment [7]; 98% in experiment [8]; 96% in experiment [9]; 80% in experiment [10]; 94% in [11]; 71% in [12]. Further, the figures for the Activity in experiment [13] and in experiment [14] were 75% and 100%, respectively.
